# Data: US6613718B2, “Aryl ether derivatives and processes for their preparation and herbicidal and desiccant compositions containing them” (Ishihara Sangyo Kaisha, Ltd., priority 2001, dated 2003)
# Tests used:
# [1] = system: barnyardgrass (Echinochloa crus-galli, ECHCG); experiment: Pre-emerge greenhouse herbicide activity screening, phytotoxicity rating; format: in vivo; settings: 14 days after application
# How it was run: (§1)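 Pre-emerge: seeds sown 1 day before spray; acetone solutions, 15–1000 g ai/ha, track sprayer; soil watered after application, then bottom-watered. Post-emerge: plants at 2-3 leaf stage (sown 8-21 days prior), 0.25% v/v non-ionic surfactant added, bottom-watered only. Rated 0-100 at 14 DAA.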
# [2] = system: common ragweed (Ambrosia artemisiifolia L., AMBEL); experiment: as above; format: in vivo; settings: 14 days after application
# How it was run: as §1
# [3] = system: green foxtail (Setaria viridis, SETVI); experiment: as above; format: in vivo; settings: 14 days after application
# How it was run: as §1
# [4] = system: ivyleaf morningglory (Ipomoea hederacea, IPOHE); experiment: as above; format: in vivo; settings: 14 days after application
# How it was run: as §1
# [5] = system: johnsongrass (Sorghum halepense, SORHA); experiment: as above; format: in vivo; settings: 14 days after application
# How it was run: as §1
# [6] = system: lambsquarters (Chenopodium album, CHEAL); experiment: as above; format: in vivo; settings: 14 days after application
# How it was run: as §1
# [7] = system: large crabgrass (Digitaria sanguinalis, DIGSA); experiment: as above; format: in vivo; settings: 14 days after application
# How it was run: as §1
# [8] = system: redroot pigweed (Amaranthus retroflexus, AMARE); experiment: as above; format: in vivo; settings: 14 days after application
# How it was run: as §1
# [9] = system: sicklepod (Cassia obtusifolia, CASOB); experiment: as above; format: in vivo; settings: 14 days after application
# How it was run: as §1
# [10] = system: velvetleaf (Abutilon theophrasti, ABUTH); experiment: as above; format: in vivo; settings: 14 days after application
# How it was run: as §1
# [11] = system: field corn (Zea mays L., var. Dekalb 535, CORN); experiment: Pre-emerge greenhouse screening, crop safety (phytotoxicity rating); format: in vivo; settings: 14 days after application
# How it was run: as §1
# [12] = system: soybean (Glycine max L., var. Pella 86, SOY); experiment: as above; format: in vivo; settings: 14 days after application
# How it was run: as §1
# [13] = system: upland rice (Oryza sp., var.Tebonnet, RICE); experiment: as above; format: in vivo; settings: 14 days after application
# How it was run: as §1
# [14] = system: barnyardgrass (Echinochloa crus-galli, ECHCG); experiment: Post-emerge greenhouse herbicide activity screening, phytotoxicity rating; format: in vivo; settings: 14 days after application
# How it was run: as §1
# [15] = system: common ragweed (Ambrosia artemisiifolia L., AMBEL); experiment: as above; format: in vivo
# How it was run: as §1
# [16] = system: green foxtail (Setaria viridis, SETVI); experiment: as above; format: in vivo
# How it was run: as §1
# [17] = system: ivyleaf morningglory (Ipomoea hederacea, IPOHE); experiment: as above; format: in vivo; settings: 14 days after application
# How it was run: as §1
# [18] = system: johnsongrass (Sorghum halepense, SORHA); experiment: as above; format: in vivo; settings: 14 days after application
# How it was run: as §1
# [19] = system: lambsquarters (Chenopodium album, CHEAL); experiment: as above; format: in vivo
# How it was run: as §1
# [20] = system: large crabgrass (Digitaria sanguinalis, DIGSA); experiment: as above; format: in vivo; settings: 14 days after application
# How it was run: as §1
# [21] = system: redroot pigweed (Amaranthus retroflexus, AMARE); experiment: as above; format: in vivo
# How it was run: as §1
# [22] = system: sicklepod (Cassia obtusifolia, CASOB); experiment: as above; format: in vivo
# How it was run: as §1
# [23] = system: velvetleaf (Abutilon theophrasti, ABUTH); experiment: as above; format: in vivo; settings: 14 days after application
# How it was run: as §1
# [24] = Post-emerge greenhouse screening, crop safety / corn selectivity (phytotoxicity rating); format: in vivo, Zea mays L.; settings: Zea mays (field corn), in vivo, 62.5 g ai/ha
# How it was run: as §1
# [25] = system: field corn (Zea mays L., var. Dekalb 535, CORN); experiment: as above; format: in vivo; settings: 14 days after application
# How it was run: as §1
# [26] = system: soybean (Glycine max L., var. Pella 86, SOY); experiment: Post-emerge greenhouse screening, crop safety (phytotoxicity rating); format: in vivo; settings: 14 days after application
# How it was run: as §1
# [27] = system: upland rice (Oryza sp., var.Tebonnet, RICE); experiment: as above; format: in vivo; settings: 14 days after application
# How it was run: as §1
# [28] = 125 g ai/ha, 14 days after application
# [29] = 250 g ai/ha, 14 days after application
compound,measurement,setting,value
Cn1nc(-c2cc(Oc3ncccn3)c(Cl)cc2F)c(Cl)c1[S+]([O-])C(F)F (stereo not drawn) [Compound 5-1],ECHCG phytotoxicity rating (0-100 scale),[1]; 125 g ai/ha,100
same,ECHCG phytotoxicity rating (0-100 scale),[1]; 250 g ai/ha,100
same,AMBEL phytotoxicity rating (0-100 scale),[2]; 125 g ai/ha,75
same,AMBEL phytotoxicity rating (0-100 scale),[2]; 250 g ai/ha,100
same,SETVI phytotoxicity rating (0-100 scale),[3]; 125 g ai/ha,100
same,SETVI phytotoxicity rating (0-100 scale),[3]; 250 g ai/ha,100
same,IPOHE phytotoxicity rating (0-100 scale),[4]; 125 g ai/ha,99
same,IPOHE phytotoxicity rating (0-100 scale),[4]; 250 g ai/ha,100
same,SORHA phytotoxicity rating (0-100 scale),[5]; 125 g ai/ha,100
same,SORHA phytotoxicity rating (0-100 scale),[5]; 250 g ai/ha,100
same,CHEAL phytotoxicity rating (0-100 scale),[6]; 125 g ai/ha,100
same,CHEAL phytotoxicity rating (0-100 scale),[6]; 250 g ai/ha,100
same,DIGSA phytotoxicity rating (0-100 scale),[7]; 125 g ai/ha,100
same,DIGSA phytotoxicity rating (0-100 scale),[7]; 250 g ai/ha,100
same,AMARE phytotoxicity rating (0-100 scale),[8]; 125 g ai/ha,100
same,AMARE phytotoxicity rating (0-100 scale),[8]; 250 g ai/ha,100
same,CASOB phytotoxicity rating (0-100 scale),[9]; 125 g ai/ha,60
same,CASOB phytotoxicity rating (0-100 scale),[9]; 250 g ai/ha,90
same,ABUTH phytotoxicity rating (0-100 scale),[10]; 125 g ai/ha,99
same,ABUTH phytotoxicity rating (0-100 scale),[10]; 250 g ai/ha,100
same,"CORN crop damage, phytotoxicity rating (0-100 scale)",[11]; 125 g ai/ha,40
same,"CORN crop damage, phytotoxicity rating (0-100 scale)",[11]; 250 g ai/ha,50
same,"SOY crop damage, phytotoxicity rating (0-100 scale)",[12]; 125 g ai/ha,0
same,"SOY crop damage, phytotoxicity rating (0-100 scale)",[12]; 250 g ai/ha,65
same,"RICE crop damage, phytotoxicity rating (0-100 scale)",[13]; 125 g ai/ha,55
same,"RICE crop damage, phytotoxicity rating (0-100 scale)",[13]; 250 g ai/ha,80
same,ECHCG phytotoxicity rating (0-100 scale),[14]; 125 g ai/ha,75
same,ECHCG phytotoxicity rating (0-100 scale),[14]; 250 g ai/ha,65
same,AMBEL phytotoxicity rating (0-100 scale),[15]; 31.3 g ai/ha,50
same,AMBEL phytotoxicity rating (0-100 scale),[15]; 62.5 g ai/ha,60
same,AMBEL phytotoxicity rating (0-100 scale),[15]; [28],65
same,AMBEL phytotoxicity rating (0-100 scale),[15]; [29],75
same,SETVI phytotoxicity rating (0-100 scale),[16]; 31.3 g ai/ha,50
same,SETVI phytotoxicity rating (0-100 scale),[16]; 62.5 g ai/ha,60
same,SETVI phytotoxicity rating (0-100 scale),[16]; [28],95
same,SETVI phytotoxicity rating (0-100 scale),[16]; [29],95
same,IPOHE phytotoxicity rating (0-100 scale),[17]; 125 g ai/ha,100
same,IPOHE phytotoxicity rating (0-100 scale),[17]; 250 g ai/ha,100
same,SORHA phytotoxicity rating (0-100 scale),[18]; 125 g ai/ha,75
same,SORHA phytotoxicity rating (0-100 scale),[18]; 250 g ai/ha,75
same,CHEAL phytotoxicity rating (0-100 scale),[19]; 31.3 g ai/ha,100
same,CHEAL phytotoxicity rating (0-100 scale),[19]; 62.5 g ai/ha,100
same,CHEAL phytotoxicity rating (0-100 scale),[19]; [28],100
same,CHEAL phytotoxicity rating (0-100 scale),[19]; [29],100
same,DIGSA phytotoxicity rating (0-100 scale),[20]; 125 g ai/ha,50
same,DIGSA phytotoxicity rating (0-100 scale),[20]; 250 g ai/ha,55
same,AMARE phytotoxicity rating (0-100 scale),[21]; 31.3 g ai/ha,98
same,AMARE phytotoxicity rating (0-100 scale),[21]; 62.5 g ai/ha,100
same,AMARE phytotoxicity rating (0-100 scale),[21]; [28],100
same,AMARE phytotoxicity rating (0-100 scale),[21]; [29],100
same,CASOB phytotoxicity rating (0-100 scale),[22]; 31.3 g ai/ha,35
same,CASOB phytotoxicity rating (0-100 scale),[22]; 62.5 g ai/ha,85
same,CASOB phytotoxicity rating (0-100 scale),[22]; [28],99
same,CASOB phytotoxicity rating (0-100 scale),[22]; [29],100
same,ABUTH phytotoxicity rating (0-100 scale),[23]; 125 g ai/ha,100
same,ABUTH phytotoxicity rating (0-100 scale),[23]; 250 g ai/ha,100
same,corn phytotoxicity rating (0-100 scale) at 14 days,[24],5
same,"CORN crop damage, phytotoxicity rating (0-100 scale)",[25]; 125 g ai/ha,7
same,"CORN crop damage, phytotoxicity rating (0-100 scale)",[25]; 250 g ai/ha,8
same,"SOY crop damage, phytotoxicity rating (0-100 scale)",[26]; 125 g ai/ha,65
same,"SOY crop damage, phytotoxicity rating (0-100 scale)",[26]; 250 g ai/ha,55
same,"RICE crop damage, phytotoxicity rating (0-100 scale)",[27]; 125 g ai/ha,50
same,"RICE crop damage, phytotoxicity rating (0-100 scale)",[27]; 250 g ai/ha,55
